Assay results: patent publication US20150157575A1, “Pharmaceutical Formulations Comprising Vilazodone” (Forest Laboratories Holdings Ltd., priority 2013, published 2015)
Each block holds one compound with its values, some of them ahead of it.

How the values were obtained:
[1] = Study 2: single-dose pharmacokinetics in severe hepatic impairment and matched healthy controls; settings: for AUC(0-inf) / Cmax / Tmax / half-life: both, human, plasma, po, 20 mg, vilazodone 20 mg single oral dose; for AUC(0-inf): AUC0-∞
Procedure: The pharmacokinetics, tolerability, and safety of vilazodone were investigated in two separate trials involving participants with hepatic impairment, compared with healthy controls. An Open-label, parallel-group, single-dose pharmacokinetic studies, a single, oral dose of vilazodone (20 mg with increased hardness) was administered to participants with mild, moderate, or severe hepatic impairment or individually matched controls. Outcomes included pharmacokinetic parameters and safety (vital signs, clinical laboratory evaluations, ECG, and adverse events [AEs]). Plasma samples were analyzed using validated LC/MS/MS methods.
Data from two, open-label, parallel-group, single-dose pharmacokinetic studies investigated single-dose vilazodone (20 mg with increased hardness) in participants with hepatic impairment and normal hepatic function. The first study (Study 1) included participants with mild or moderate hepatic impairment and healthy controls. The second study (Study 2) included participants with severe hepatic impairment or healthy participants. These studies were both designed in accordance with the FDA guidance for evaluation of pharmacokinetics in the presence of hepatic impairment. The differences between the study protocols were minimal, so both methodologies are described together, with any differences noted below.
Participants were men and women, 18 to 70 years of age, with a body mass index (BMI) of 18-42 kg/m^2. Women were not pregnant or breastfeeding and agreed to utilize a medically accepted form of contraception during the study (as did men in Study 2). In Study 2, participants were also required to be non-smokers or light smokers (fewer than 10 cigarettes per day; there was no stipulation in Study 1) and to have a sitting pulse rate of 50-100 bpm at screening and prior to dosing on Day 1. […] Each healthy control was matched with a hepatically impaired participant. Control participants in the Study 1 were matched with a hepatically impaired individual according to age (±10 years), sex, and BMI (±15%). Control participants in Study 2 were matched with a hepatically impaired individual according to age (±5 years), sex, and weight (±10%).
Participants with hepatic dysfunction were classified according to the Child-Pugh hepatic dysfunction staging system as having mild (5-6 points) or moderate (7-9 points) hepatic impairment (Study 1), or severe impairment (10-15 points; Study 2). Participants with severe impairment also had chronic liver disease and/or compensated cirrhosis, as evidenced by liver biopsy, computerized tomography or ultrasonic evidence of hepatic fibrosis, clinical evidence of chronic liver disease, or a colloid shift on a liver-spleen scan. Exclusion criteria included the following: a clinical diagnosis or history of depression; treatment with antidepressants, anxiolytics, psychoactive medications (including herbal supplements), other serotonergic drugs, or drugs that inhibit CYP3A4 (eg, ketoconazole, diltiazem, macrolide antibiotics); a hypersensitivity to vilazodone or other SSRIs or 5-HT agonists; history or evidence of alcohol or substance abuse, cancer, human immunodeficiency virus, hepatitis B (Study 1 and healthy controls, both studies) hepatitis C (healthy controls, both studies), or other clinically significant illnesses or medical conditions. Participants with severe hepatic impairment were excluded if they had bleeding diathesis, advanced ascites requiring large-volume paracentesis within 1 week of dosing, esophageal bleeding within the previous 8 weeks, history of portosystemic shunt or hepatic transplant, or evidence of hepatic encephalopathy, hepatorenal syndrome, or other evidence of rapid hepatic deterioration.
Participants were not allowed to have previously taken vilazodone or participated in any clinical investigation requiring repeated blood draws within 60 days of dosing, or donated blood or plasma within 60 or 30 days, respectively.

clinical = assay: clinical; parameters: species or system human; settings: in vivo
Procedure: An open-label, multiple-dose, single-sequence study to evaluate the effect of steady-state carbamazepine XR, 400 mg once daily, a CYP3A4 substrate and inducer, on the pharmacokinetics of steady-state vilazodone 40 mg tablets once daily, with hardness of more than 10 kp and less than 14 kp, preferably about 12 kp as shown in Table 3 (No Tablet Breakage). Vilazodone was co-administered with carbamazepine XR (extended release formulation). Carbamazepine is an antiepileptic drug approved for the treatment of psychomotor and grand mal seizures is metabolized by CYP3A4, and is a CYP3A4 inducer.
All subjects were healthy, nonsmoking male or female volunteers who were 18-45 (Study 2) years of age. Inclusion and exclusion criteria were typical of the criteria used in pharmacokinetic studies in healthy volunteers as known in the art. Inclusion criteria used included agreement to use an effective measure of contraception, body mass index (BMI)>18 and ≦30 kg/m^2 (BMI=18 allowed), normal or clinically non-significant results on physical examination, medical history, serum chemistry, hematology, and urinalysis; negative hepatitis B antigen and C antibody tests, and negative HIV test at screening. Exclusion criteria included clinically significant electrocardiogram results or QT prolongation, clinically significant disease state, history of alcohol abuse, ingestion of food, drink, or drug that may interfere with CYP enzyme activity (e.g., cruciferous vegetables, caffeine, alcohol), known sensitivity to study drug or other drugs from the same class, and use of prohibited concomitant prescription or over-the counter medications.
All volunteers received 4 treatments (A, B, C, and D) in the same, fixed sequence: Treatment A consisted of vilazodone alone on Days 1-9 and was followed by a 14-day washout, Treatment B was carbamazepine XR alone for 19 days (Days 24-42), Treatment C was vilazodone plus carbamazepine XR for 9 days (Days 43-51), and Treatment D was carbamazepine alone for 3 days (Days 52-54). Once-daily doses of study drug were administered in the morning after breakfast; twice-daily doses were administered in the morning after breakfast and 12 hours later in the evening after dinner Study drug was administered within 30 minutes after the end of the corresponding meal.
Blood samples to determine plasma concentrations of vilazodone, M17 (the metabolite of vilazodone), carbamazepine, and carbamazepine-10,11-epoxide (one of the pharmacologically active metabolites of carbamazepine) were collected into tubes pretreated with K2EDTA. For vilazodone and M17 analyses, blood samples (approximately 6 mL) were collected at pre-dose on Days 1, 7, 8, 49, and 50. […] For the analyses of carbamazepine and carbamazepine-10,11-epoxide, blood samples were collected at pre-dose on Days 24, 40, 41, 49 and 50.
Blood samples were centrifuged at no less than 2500 g for 10 minutes at 4° C. within 30 minutes of the sample draw. Plasma was harvested and transferred to polypropylene tubes and flash frozen in a dry ice bath with isopropyl alcohol or methanol. Samples for vilazodone analyses were stored at approximately −70° C. and analyzed. Samples for carbamazepine analyses were stored at −20° C. and analyzed.
Plasma samples were analyzed for vilazodone, M17, carbamazepine and/or carbamazepine-10,11-epoxide concentrations using liquid chromatography coupled with tandem mass spectrometry (LC/MS/MS). For vilazodone and M17, analytes of interest were detected by electrospray ionization mass spectrometry in the negative ion multiple reaction monitoring mode. The assay was linear in the concentration range of 0.5 to 250 ng/mL for vilazodone and 0.25 to 125 ng/mL for M17.
Based on 50 ìL of human plasma with K2EDTA as the anticoagulant, the lower limit of quantification (LLOQ) was 0.5 ng/mL for vilazodone and 0.25 ng/mL for M17. […]

[2] = Control matched to Severe Impairment n = 8
[3] = Severe Impairment n = 4 (who did not vomit)

AUC(0-inf) [1, 2]: 51.4 ± 21.4 ng·h/mL | AUC(0-inf) [1, 3]: 29.9 ± 8.15 ng·h/mL | Cmax [1, 2]: 1.95 ± 0.56 ng/mL | Cmax [1, 3]: 1.64 ± 0.56 ng/mL | Tmax ([1]; Tmax (mean), Control matched to Severe Impairment n = 8): 6 ± 4.14 h | Tmax ([1]; Tmax (mean), Severe Impairment n = 4 (who did not vomit)): 4.25 ± 1.26 h | Tmax ([1]; Tmax, Median, Control matched to Severe Impairment n = 8): 5 h | Tmax ([1]; Tmax, Median, Severe Impairment n = 4 (who did not vomit)): 4 h | half-life ([1]; t1/2, Control matched to Severe Impairment n = 8): 17.4 ± 4.25 h | half-life ([1]; t1/2, Severe Impairment n = 4 (who did not vomit)): 17.8 ± 9.57 h | ratio of M17 to vilazodone (AUC0-∞) ([1]; normal controls): 0.07 | ratio of M17 to vilazodone (AUC0-∞) ([1]; severe hepatic impairment): 0.05 | mean AUC0-∞ lower than in normal controls ([1]; severe impairment (who did not vomit) vs normal controls, vilazodone 20 mg single dose): approximately 42%
Structure (SMILES): N#Cc1ccc2[nH]cc(CCCC(=O)O)c2c1 [M17]

tmax, Median (min-max) (clinical; human): 12.0 h | Cavg, ss, Mean (SD) (clinical): 0.6 (0.2) μg/mL
Structure (SMILES): NC(=O)N1c2ccccc2C2OC2c2ccccc21 (centres unmarked) [carbamazepine-10,11-epoxide]

concentration at 42 day (clinical; both sexes, human, Cavg, ss, Mean (SD)): 5500 ng/mL | Tmax (clinical; both sexes, human, tmax, Median (min-max)): 10 h
Structure (SMILES): NC(=O)N1c2ccccc2C=Cc2ccccc21 [Carbamazepine, carbamazepine]
